# Tested on: rats
# Test: Acute oral toxicity (LD50) in rats
# Conditions: conversion of the MSDS LD50
compound,measurement,value
"OCC(O)CO [Vegetable glycerin, glycerol]",LD50 oral rat dosage expressed for a 180 pound male,36 ounces
